Test results published in patent US20030017186A1, “Carboxylic acid fluorides as pesticides” (priority 1999, published 2003).

Columns and labels:
Type in all cases: in vivo
[1] = tested on: Saw-toothed grain beetle (Oryzaephilus surinamensis); assay: Fumigation test in glass vessel, saw-toothed grain beetles; settings: ORYZSA beetles; Example 7; ACF 53.0/54.6/0 g/m^3, second gas (SF) 43.6/41.4/39.8 g/m^3 (1st/2nd/3rd fumigation); 20.0/20.2/19.8 C.
Excerpt: a4) Saw-toothed grain beetle (Oryzaephilus surinamensis)=ORYZSA
(§1) The test organisms, separated by species, were placed into a glass vessel measuring 30 cm×30 cm×60 cm, which was sealed with a glass lid so as to be airtight. The adults and the larvae of the mealworm beetle (Tenebrio molitor) and the broad-horned flour beetle (Gnathocerus cornutus) were placed into small glass vessels approximately 5 cm in diameter, which were closed with a gauze lid and in which they could freely move about. The larvae of the rice weevil had burrowed into seeds of grain. The wood pest larvae were inserted into small blocks of wood measuring 5 cm×2.5 cm×2 cm. The openings were sealed with wads of cotton wool. Only one each of the larvae of the house longhorn beetle (Hylotrupes bajulus) was inserted into a piece of wood, while 6-8 larvae of the common furniture beetle (Anobium punctatum) were inserted into each piece of wood.
(§2) The respective gas was then introduced into the fumigation vessel through a gas line from a gas tank that contained the specified amount of gas. After a defined time period, the fumigation vessel was purged with compressed air. The discharged gas was purified by an attached gas scrubber.
(§3) The beetles were observed until they died. This point was recorded for each species. The larvae of the wood pests as well as the larvae of the rice weevil (Sitophilus oryzae) had to be picked out of the wood or the grain to check their condition. If any of the animals were still alive, the wooden test blocks remaining in the vessel were fumigated again and were reexamined after the corresponding time span had elapsed. The same number of animals in the untreated control was also checked at each point.
(§4) The vitality of the animals was checked at certain time intervals. The beetles could be observed through the fumigation vessel. This was also true for the larvae of the mealworm beetle and the broad-horned flour beetle. The wooden test blocks of the wood pest larvae were opened with hammer and chisel. Tweezers were used to pull the rice weevil larvae out of the grain seeds. The exact time intervals and the number of the evaluated pests were documented in the test results.

[2] = tested on: Common furniture beetle (Anobium punctatum) larvae; assay: Fumigation test in glass vessel, common furniture beetle larvae in wood blocks; settings: ANOBPU larvae in wood blocks; Example 7; ACF 53.0/54.6/0 g/m^3, second gas (SF) 43.6/41.4/39.8 g/m^3 (1st/2nd/3rd fumigation); 20.0/20.2/19.8 C.
Excerpt: b2) Common furniture beetle (Anobium punctatum)=[…]
as §1, §2, §3, §4

[3] = tested on: Broad-horned flour beetle (Gnathocerus cornutus); assay: Fumigation test in glass vessel, broad-horned flour beetles; settings: GNATCO beetles; Example 7; ACF 53.0/54.6/0 g/m^3, second gas (SF) 43.6/41.4/39.8 g/m^3 (1st/2nd/3rd fumigation); 20.0/20.2/19.8 C.
Excerpt: (§5) a3) Broad-horned flour beetle (Gnathocerus cornutus)=GNATCO
as §1, §2, §3, §4

[4] = tested on: House longhorn beetle (Hylotrupes bajulus) larvae; assay: Fumigation test in glass vessel, house longhorn beetle larvae in wood blocks; settings: HYLOBA larvae in wood blocks; Example 7; ACF 53.0/54.6/0 g/m^3, second gas (SF) 43.6/41.4/39.8 g/m^3 (1st/2nd/3rd fumigation); 20.0/20.2/19.8 C.
Excerpt: (§6) b1) House longhorn beetle (Hylotrupes bajulus)=HYLOBA
as §1, §2, §3, §4

[5] = tested on: Rice weevil (Sitophilus oryzae); assay: Fumigation test in glass vessel, rice weevils; settings: SITTOR beetles; Example 7; ACF 53.0/54.6/0 g/m^3, second gas (SF) 43.6/41.4/39.8 g/m^3 (1st/2nd/3rd fumigation); 20.0/20.2/19.8 C.
Excerpt: a2) Rice weevil (Sitophilus oryzae)=SITTOR
as §1, §2, §3, §4

[6] = tested on: House longhorn beetle (Hylotrupes bajulus); assay: Fumigation test in glass vessel, house longhorn beetles; settings: HYLOBA beetles; Example 7; ACF 53.0/54.6/0 g/m^3, second gas (SF) 43.6/41.4/39.8 g/m^3 (1st/2nd/3rd fumigation); 20.0/20.2/19.8 C.
Excerpt: as §6, §1, §2, §3, §4

[7] = tested on: Mealworm beetle (Tenebrio molitor); assay: Fumigation test in glass vessel, mealworm beetles; settings: TENEMO beetles; Example 7; ACF 53.0/54.6/0 g/m^3, second gas (SF) 43.6/41.4/39.8 g/m^3 (1st/2nd/3rd fumigation); 20.0/20.2/19.8 C.
Excerpt: (§7) a1) Mealworm beetle (Tenebrio molitor)=TENEMO
as §1, §2, §3, §4

[8] = tested on: Mealworm beetle (Tenebrio molitor) larvae; assay: Fumigation test in glass vessel, mealworm beetle larvae; settings: TENEMO larvae; Example 7; ACF 53.0/54.6/0 g/m^3, second gas (SF) 43.6/41.4/39.8 g/m^3 (1st/2nd/3rd fumigation); 20.0/20.2/19.8 C.
Excerpt: as §7, §1, §2, §3, §4

[9] = tested on: Broad-horned flour beetle (Gnathocerus cornutus) larvae; assay: Fumigation test in glass vessel, broad-horned flour beetle larvae; settings: GNATCO larvae; Example 7; ACF 53.0/54.6/0 g/m^3, second gas (SF) 43.6/41.4/39.8 g/m^3 (1st/2nd/3rd fumigation); 20.0/20.2/19.8 C.
Excerpt: as §5, §1, §2, §3, §4

## O=C(F)C(F)(F)Cl [CFACF, chlorodifluoroacetyl fluoride]
[1]
  Number alive, 30 min. after 1st Fumigation: 0
  Number dead, 30 min. after 1st Fumigation: 15
[2]
  Number alive, 1 hr. after 1st Fumigation: 6
  Number alive, 3 hrs. after 1st Fumigation: 3
  Number alive, 6 hrs after 1st Fumigation: 4
  Number dead, 1 hr. after 1st Fumigation: 0
  Number dead, 3 hrs. after 1st Fumigation: 3
  Number dead, 6 hrs after 1st Fumigation: 2
[3]
  Number alive, 30 min. after 1st Fumigation: 0
  Number dead, 30 min. after 1st Fumigation: 15
[4]
  Number alive, 1 hr. after 1st Fumigation: 5
  Number alive, 3 hrs. after 1st Fumigation: 5
  Number alive, 6 hrs after 1st Fumigation: 5
  Number dead, 1 hr. after 1st Fumigation: 0
  Number dead, 3 hrs. after 1st Fumigation: 0
  Number dead, 6 hrs after 1st Fumigation: 0
[5]
  Number alive, 30 min. after 1st Fumigation: 7
  Number alive, 1 hr. after 1st Fumigation: 7
  Number alive, 3 hrs. after 1st Fumigation: 0
  Number dead, 30 min. after 1st Fumigation: 8
  Number dead, 1 hr. after 1st Fumigation: 8
  Number dead, 3 hrs. after 1st Fumigation: 15
[6]
  Number alive, 30 min. after 1st Fumigation: 0
  Number dead, 30 min. after 1st Fumigation: 6
[7]
  Number alive, 30 min. after 1st Fumigation: 10
  Number alive, 1 hr. after 1st Fumigation: 10
  Number alive, 3 hrs. after 1st Fumigation: 10
  Number alive, 6 hrs after 1st Fumigation: 5
  Number dead, 30 min. after 1st Fumigation: 0
  Number dead, 1 hr. after 1st Fumigation: 0
  Number dead, 3 hrs. after 1st Fumigation: 0
  Number dead, 6 hrs after 1st Fumigation: 5
[8]
  Number alive, 30 min. after 1st Fumigation: 10
  Number alive, 1 hr. after 1st Fumigation: 10
  Number alive, 3 hrs. after 1st Fumigation: 0
  Number dead, 30 min. after 1st Fumigation: 0
  Number dead, 1 hr. after 1st Fumigation: 0
  Number dead, 3 hrs. after 1st Fumigation: 10
[9]
  Number alive, 30 min. after 1st Fumigation: 7
  Number alive, 1 hr. after 1st Fumigation: 7
  Number alive, 3 hrs. after 1st Fumigation: 0
  Number dead, 30 min. after 1st Fumigation: 8
  Number dead, 1 hr. after 1st Fumigation: 8
  Number dead, 3 hrs. after 1st Fumigation: 15
